For assay [1], the target named is T1, calpain-2 (Mus musculus, UniProt O08529).
T1 sequence (O08529 1-700): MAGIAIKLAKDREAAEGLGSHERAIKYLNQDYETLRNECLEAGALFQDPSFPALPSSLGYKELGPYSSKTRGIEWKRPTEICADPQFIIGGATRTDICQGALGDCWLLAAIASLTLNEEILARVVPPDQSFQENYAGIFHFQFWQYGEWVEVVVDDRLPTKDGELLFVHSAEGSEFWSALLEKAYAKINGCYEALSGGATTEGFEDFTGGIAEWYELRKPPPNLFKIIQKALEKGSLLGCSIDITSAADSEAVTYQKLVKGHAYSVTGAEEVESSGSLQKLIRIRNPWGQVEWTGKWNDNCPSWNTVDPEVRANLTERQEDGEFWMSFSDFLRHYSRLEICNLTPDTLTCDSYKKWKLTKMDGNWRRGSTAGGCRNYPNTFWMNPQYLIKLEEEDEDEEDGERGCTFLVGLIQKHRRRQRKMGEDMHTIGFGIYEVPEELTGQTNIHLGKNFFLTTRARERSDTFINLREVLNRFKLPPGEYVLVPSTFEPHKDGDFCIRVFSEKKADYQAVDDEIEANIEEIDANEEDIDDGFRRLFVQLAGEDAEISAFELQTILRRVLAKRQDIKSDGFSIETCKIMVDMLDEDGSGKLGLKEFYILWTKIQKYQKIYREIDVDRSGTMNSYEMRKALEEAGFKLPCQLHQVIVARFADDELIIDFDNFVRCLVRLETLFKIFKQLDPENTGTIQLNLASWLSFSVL
T1 sequence (O88456 1-268 partner): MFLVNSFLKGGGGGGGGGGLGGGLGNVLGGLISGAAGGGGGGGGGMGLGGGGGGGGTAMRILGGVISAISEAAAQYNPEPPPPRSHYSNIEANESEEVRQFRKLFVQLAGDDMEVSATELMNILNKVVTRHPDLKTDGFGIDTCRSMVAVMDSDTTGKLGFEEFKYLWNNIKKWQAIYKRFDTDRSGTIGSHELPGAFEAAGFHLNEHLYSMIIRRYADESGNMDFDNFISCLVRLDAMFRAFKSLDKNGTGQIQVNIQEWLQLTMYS
The assay is described as follows: Calpain-2 activity after TBI in mice (i.p. dosing). More on the design: from tissue; host or cells: cerebellar P2 fractions / brain of wild-type mice after TBI. Format: in vivo. Here is the method:
Calpain activity in cerebellar P2 fractions was measured 24 h after traumatic brain injury (TBI) in adult wild-type mice and the assay results for calpain-1 and calpain-2 are shown in FIG. 2. 0.1 or 1 mg/kg of NA112 was injected intraperitoneally 1 h after TBI. Each measurement of in vivo selectivity was obtained as follows: • Calpain-1 activity: Calpain activity with 20 μM Ca^2+. Normalized to Vehicle. • Calpain-2 activity: Calpain activity with 5 mM Ca^2+ minus Calpain activity with 20 μM Ca^2+. Results are means S.E.M. of 3 experiments.
Calpain activity in cerebellar P2 fractions was measured 24 h after TBI in adult WT mice, and vehicle or 0.1 or 1 mg/kg of NA112 (12) dissolved in DMSO or liposomal formulation (lipo) was injected intraperitoneally 1 h after TBI. […]
Vehicle (DMSO or liposomes) or 0.1 or 1 mg/kg of NA112 (12) dissolved in DMSO or liposomal formulation (lipo) was injected intraperitoneally 1 h after TBI in WT mice. Calpain activity was measured 24 h later in cerebellar P2 fractions. Calpain-1 activity was measured in the presence of 20 μM calcium and calpain-2 activity was measured as the difference between calpain activity measured in the presence of 5 mM calcium and that measured in the presence of 20 μM calcium (FIG. 11). In both cases, calpain activity was normalized to the values measured in vehicle-treated mice. […]

Assay [2] deals with TUNEL-positive cells. The assay is described as follows: TUNEL staining of brain 24 h after TBI in WT mice. Type of assay: in vivo. The procedure:
Quantification of TUNEL staining 24 h after TBI plus i.p. injection of NA112 at 0.1 or 1.0 mg/kg. Total numbers of TUNEL-positive cells in 3 coronal sections (Bregma 0.50, −0.58, −1.58 mm) of each brain were counted and averaged. Results are means S.E.M. of 3 animals. * p<0.05 vs Vehicle. One-way ANOVA followed by Bonferroni test.
Vehicle (control liposomes) or 0.1 or 1 mg/kg of NA112 dissolved in liposomal formulation was injected 1 h after TBI in WT mice. Animals were sacrificed 24 h later and brains were stained with TUNEL staining to analyze the extent of cell death.
The number of TUNEL-positive cells in images similar to those shown in FIG. 12 was quantified (FIG. 13). Results in FIG. 13 are Means±S.E.M. of 3 different animals.
Quantification of TUNEL staining 24 h after TBI plus i.p. injection of WT mice with NA184 at indicated doses 1 h after TBI. Total numbers of TUNEL-positive cells in 3 coronal sections (Bregma 0.50, −0.58, −1.58 mm) of each brain were counted and averaged. Results are means±S.E.M. of 3-6 animals. * p<0.05, ** p<0.01, vs Vehicle. One-way ANOVA followed by Bonferroni test (FIG. 20).

In the case of `CCC(NC(=O)[C@H](CC(C)C)NC(=O)NCc1ccccc1)C(=O)C(=O)NCc1cc(OC)cc(OC)c1` (mixture of isomers) [NA112, (2S)-2-(3-benzylureido)-N-(1-((3,5-dimethoxybenzyl)amino)-1,2-dioxopentan-3-yl)-4-methylpentanamide], the “Calpain-2 inhibition, DMSO vs liposomes” value in assay [1] (0.1 or 1 mg/kg i.p. 1 h after TBI, cerebellar P2 fractions 24 h after TBI) is on record as “same degree of calpain-2 inhibition”. Moreover, the TUNEL staining entry in assay [2] (liposomal formulation, 0.1 or 1 mg/kg 1 h after TBI, 24 h later) is recorded as “decrease in TUNEL staining”.
Regarding `CCC(NC(=O)[C@H](CC(C)C)NC(=O)NCc1ccccc1)C(=O)C(=O)NCc1cccc(Cl)c1OC` (stereo partly drawn) [NA184, (2S)-2-(3-benzylureido)-N-(1-((3-chloro-2-methoxybenzyl)amino)-1,2-dioxopentan-3-yl)-4-methylpentanamide], the “Calpain-2 inhibition in brain, male and female mice” value in assay [1] (1 mg/kg i.p., 24 h after TBI) was “significantly inhibited calpain-2”. In addition, in assay [2] (Mus musculus, ip, i.p. 1 h after TBI, DMSO solution, TUNEL 24 h after TBI), the ED50 (in general, the dose that gives a 50% effect, or the effect in half of the subjects) is around 0.13 mg/kg.

(Values after patent publication US12606520B2, “Calpain-2 inhibitor compounds and methods of treatment” (WESTERN UNIVERSITY OF HEALTH SCIENCES, priority 2020, dated 2026).)
